The nature of data set [1]: Phase 1 clinical study: plasma pharmacokinetics after ketamine transdermal patch. To be noted: for plasma concentration: 28 mg dose; for AUC: AUCall; for AUC(0-inf): AUCinf. As to the method: Enrollment was planned to achieve participation of up to 14 adult subjects with MDD in the 3 stages of the protocol. Subjects were to be screened within 4 weeks of enrollment. Eligible subjects who provided written consent were to be enrolled into Stage 1 of the study. In Stage 1 of the study, subjects were to receive the low-dose transdermal patch. The amount of residual drug was to be measured and PK analysis conducted for each subject to inform the subsequent dosing. In Stage 2, after a 2 to 4 week washout period, a placebo patch was to be administered. A “deception” protocol was used in order to ensure the subjects remained blinded to the treatment. Placebo administration was followed by a 1 week washout period, after which subjects were to receive the high-dose transdermal patch in Stage 3. The overall study duration from screening until the end of Stage 3 was approximately 60 days, including both inpatient and outpatient portions of the study. The general study design is illustrated in FIG. 3.
The patch was predicted to deliver systemically approximately 20 mg.
For Stage 1, blood samples were collected pre-patch application, and at 2, 6, 12, 24, 28, 32, 48, 96, and 168 hours post-patch application.
Blood samples were collected in tubes containing sodium heparin and stored on ice or room temperature until centrifuged under refrigeration or room temperature for at least 10 minutes at 3,000 revolutions per minute. After centrifugation, plasma was removed, divided into 2 aliquots of approximately 0.6 mL each, frozen, and stored at or below −20° C. Blood was processed to plasma and frozen within 1 hour of collection. Processed frozen plasma samples were transferred on dry ice to the analytical laboratory and were stored at or below −20° C. until bioanalysis was performed.
A non-compartmental analysis (NCA) was used to calculate PK parameters using Phoenix® WinNonlin® 6.4 or later (Certara, USA).

A short description of data set [2]: Reported human pharmacokinetics of ketamine by IV infusion, oral or intranasal route. To be noted: 40-min IV infusion of 35 mg of ketamine. The text has this:
There has been very limited data on monitoring HNK pharmacokinetics in humans in a robust approach. […] Also HNK was shown preclinically to have lower potential of AEs.

Data set [3] in a line: Prediction of delivered dose and human PK from in vitro permeability and PK linearity. To be noted: predicted.
The next data set has as its system NMDA receptor. Particulars: in vitro; Shimoyama et al., 1999; cited from earlier work.

Regarding `NC1(c2ccccc2Cl)CCCC(O)C1=O` (stereo not drawn) [Hydroxynorketamine, hydroxynorketamine], the plasma concentration entry in data set [1] (48 hours post application of tested ketamine patch) is “about 10 ng/ml”; in data set [1] (72 hours post application of tested ketamine patch) it was “about 6 ng/ml”. In addition, the AUCall in data set [1] (Stage 1 (60 cm^2 patch, 24 h, low-dose), Mean) came out at 438 ng·h/mL; in data set [1] (Stage 1 (60 cm^2 patch, 24 h, low-dose), Median), 364 ng·h/mL; in data set [1] (Stage 3 (20 and 60 cm^2 patches, high-dose), Mean), 549 ng·h/mL; in data set [1] (Stage 3 (20 and 60 cm^2 patches, high-dose), Median), 488 ng·h/mL. Besides, the AUCinf in data set [1] (Stage 1, Mean) was found to be 666 ng·h/mL; in data set [1] (Stage 1, Median), 573 ng·h/mL; in data set [1] (Stage 3, Mean) it was 839 ng·h/mL; in data set [1] (Stage 3, Median) it was 660 ng·h/mL. Moreover, the Cmax stood at 12.3 ng/mL in data set [1] (Stage 1, Mean); 12.6 ng/mL in data set [1] (Stage 1, Median); 15.7 ng/mL in data set [1] (Stage 3, Mean); 12.8 ng/mL in data set [1] (Stage 3, Median). The Extrap in data set [1] (Stage 1, Mean) turned out to be 10%; in data set [1] (Stage 1, Median), 6%; in data set [1] (Stage 3, Mean), 15%; in data set [1] (Stage 3, Median), 10%. In addition, the T1/2 in data set [1] (Stage 1, Mean) turned out to be 19.3 h; in data set [1] (Stage 1, Median), 17.9 h; in data set [1] (Stage 3, Mean), 20.2 h; in data set [1] (Stage 3, Median) it was 19.5 h. Further, the Tmax in data set [1] (Stage 1, Mean) is on record as 33.0 h; in data set [1] (Stage 1, Median), 32.0 h; in data set [1] (Stage 3, Mean) it was 33.5 h; in data set [1] (Stage 3, Median), 29.9 h. Besides, the “ratio of AUC of HNK/Ketamine” value was determined as 2.23 in data set [1] (tested ketamine patch) and 0.522 in data set [2] (MDD patients, digitized from Zarate et al.). The “ratio of Cmax of HNK/ketamine” value is 1.19 in data set [1] (tested ketamine patch) and “about 0.113” in data set [2] (digitized from Zarate et al.). The “Cmax resulting from about 100 mg dose by ketamine transdermal delivery device” value in data set [3] is given as “around 30 ng/mL”.

`NC1(c2ccccc2Cl)CCCCC1=O` (stereo not drawn) [Norketamine, norketamine]: the Extrap is listed as 12% in data set [1] (Stage 1, Mean); 11% in data set [1] (Stage 1, Median); 7% in data set [1] (Stage 3, Mean); 7% in data set [1] (Stage 3, Median). The AUC in data set [1] (human, plasma, other: transdermal patch, 20 mg, Stage 1 (60 cm^2 patch, 24 h, low-dose), Mean) stood at 377 ng·h/mL; in data set [1] (human, plasma, other: transdermal patch, 20 mg, Stage 1 (60 cm^2 patch, 24 h, low-dose), Median), 328 ng·h/mL; in data set [1] (human, plasma, other: transdermal patch, 40 mg, Stage 3 (20 and 60 cm^2 patches, high-dose), Mean), 486 ng·h/mL; in data set [1] (human, plasma, other: transdermal patch, 40 mg, Stage 3 (20 and 60 cm^2 patches, high-dose), Median) it was 387 ng·h/mL. Also, the AUC(0-inf) in data set [1] (human, plasma, other: transdermal patch, 20 mg, Stage 1, Mean) is 420 ng·h/mL; in data set [1] (human, plasma, other: transdermal patch, 20 mg, Stage 1, Median), 367 ng·h/mL; in data set [1] (human, plasma, other: transdermal patch, 40 mg, Stage 3, Mean), 624 ng·h/mL; in data set [1] (human, plasma, other: transdermal patch, 40 mg, Stage 3, Median), 500 ng·h/mL. Also, the Cmax in data set [1] (human, plasma, other: transdermal patch, 20 mg, Cmax, Stage 1, Mean) was determined as 11.1 ng/mL; in data set [1] (human, plasma, other: transdermal patch, 20 mg, Cmax, Stage 1, Median) it was 9.85 ng/mL; in data set [1] (human, plasma, other: transdermal patch, 40 mg, Cmax, Stage 3, Mean) it was 13.4 ng/mL; in data set [1] (human, plasma, other: transdermal patch, 40 mg, Cmax, Stage 3, Median), 10.3 ng/mL. The half-life is 19.4 h in data set [1] (human, plasma, other: transdermal patch, 20 mg, T1/2, Stage 1, Mean); 21 h in data set [1] (human, plasma, other: transdermal patch, 20 mg, T1/2, Stage 1, Median); 17.9 h in data set [1] (human, plasma, other: transdermal patch, 40 mg, T1/2, Stage 3, Mean); 19.2 h in data set [1] (human, plasma, other: transdermal patch, 40 mg, T1/2, Stage 3, Median). Also, the Tmax in data set [1] (human, plasma, other: transdermal patch, 20 mg, Tmax, Stage 1, Mean) stood at 28.4 h; in data set [1] (human, plasma, other: transdermal patch, 20 mg, Tmax, Stage 1, Median), 28 h; in data set [1] (human, plasma, other: transdermal patch, 40 mg, Tmax, Stage 3, Mean), 31.1 h; in data set [1] (human, plasma, other: transdermal patch, 40 mg, Tmax, Stage 3, Median), 28 h. Besides, the “ratio of AUC of NK/Ketamine” value in data set [1] (tested ketamine patch) is given as 1.40; in data set [2] (digitized literature data) it was 0.989. Besides, the results for the “ratio of Cmax of NK/ketamine” value in data set [1] (tested ketamine patch) and in data set [2] (digitized literature data) were 1.08 and “about 0.362”, respectively.

In the case of `CN[C@]1(c2ccccc2Cl)CCCCC1=O` [S-ketamine], in the data set with NMDA receptor, the “greater affinity than R-ketamine for NMDA receptor binding” value was around 4 fold.
